Data as given in patent US11708283B2, “Metal-chelating compositions and their use in methods of removing or inhibiting barium scale” (CORNELL UNIVERSITY, priority 2018, dated 2023).

How the values were obtained:
[1] = Hydroxyapatite challenge of Ba-L complexes (GFAAS); assay type: physicochemical; settings: HAP suspension, pH 7.6, after 20 h
Description: HAP was suspended in solutions containing the complexes formed in situ (1.1 equiv L, 1.0 equiv Ba^2+) in pH 7.6 buffer, and the amount of Ba^2+ remaining in the liquid phase, reflecting intact Ba-L complex, was determined by graphite furnace atomic absorption spectroscopy (GFAAS). Whereas free Ba^2+ is adsorbed by HAP in less than 10 min, Ba-macropa and Ba-macropaquin respectively retained 82% and 68% of this ion after 20 h. […] This feature may be important for Ba^2+ chelation in industrial applications, such as scale dissolution, because numerous other metal ions are present during these processes. […]
More specifically, hydroxyapatite (HAP, Ca5(PO4)3(OH)) challenges were carried out in 500 mM Tris buffer. […] The concentrations of these stocks were verified by quantitative NMR (n=2 for each ligand) using two independently prepared standards of potassium hydrogen phthalate in D2O. […] The concentration of macroquin-SO3 was determined by UV-vis spectrophotometry from the average of two titrations with Ba^2+. […] The absorbance at 320 nm was monitored until spectral changes ceased, at which point [Ba^2+]=[L]. From the volume of titrant added, the concentration of the stock solution of macroquin-SO3 was calculated to be 8.17 mM, which was within 9% of the theoretical value of 8.96 mM based on mass. […]

[2] = CRC Handbook; cited from earlier work

| Structure (SMILES) | Ba^2+ remaining in the liquid phase (intact Ba-L complex) [1] | Ksp [2] |
| --- | --- | --- |
| O=C([O-])c1cccc(CN2CCOCCOCCN(Cc3cccc(C(=O)[O-])n3)CCOCCOCC2)n1.[Ba+2] [Ba-macropa] | 82% |  |
| O=S(=O)([O-])[O-].[Ba+2] [BaSO4] |  | 1.08×10^−10 |
